Results as given in PMC8770593 (Nature Communications, 2022).
Changes are numbered by the printed parent chain. “And” between values parts separate entries of the source, which are not always exact repeats. Equal entries are not always repeated. Where two headings read alike, the source gives them in different places.

Columns and labels:
[1] = system: stabilized α1BAR mutant with L334 and L334F back-mutant; details: saturation binding, whole E. coli cells, L334 vs L334F back-mutant
[2] = system: α1BAR expressed in mammalian cells; details: ref Docherty, J. R., Eur. J. Pharmacol. 855, 305-320 (2019), cited from earlier work; for Kd: α1BAR expressed in mammalian cells
[3] = system: α1BAR expressed in E. coli; parameters: method as in ref Schuster, M. et al., Biochim. Biophys. Acta Biomembr. 1862, 183354 (2020); details: ref Schuster, M. et al., Biochim. Biophys. Acta Biomembr. 1862, 183354 (2020), read-out: affinity; cited from earlier work
[4] = molecular target: T1, wild-type α1BAR (Homo sapiens, UniProt P35368); assay: Agonist-induced IP1 accumulation (Gq signaling, HTRF IP-One) in transfected HEK293T/17 cells; type: cell-based; details: reference construct
T1 construct: harboring the wild-type helix 8 and the full-length C-terminus as well as the entire ICL3; expressed in transfected cells; host or cells: HEK293T/17
Method: (§1) Signaling assays were performed with receptor constructs harboring the wild-type helix 8 and the full-length C-terminus as well as the entire ICL3. Agonist-induced IP1 accumulation was measured in transiently transfected HEK293T/17 cells, as described before. […] IP1 accumulation was measured using the HTRF IP-One kit (Cisbio) according to the manufacturer’s protocol on a SPARK fluorescence plate reader (Tecan).

[5] = molecular target: T2, α1BAR D191^ECL2→Y (Homo sapiens, UniProt P35368, D191Y); assay: as above; type: cell-based; details: for IP1 concentration: D191Y, listed as PE
T2 construct: harboring the wild-type helix 8 and the full-length C-terminus as well as the entire ICL3; expressed in transfected cells; host or cells: HEK293T/17
T2 sequence (P35368 1-520 D191Y): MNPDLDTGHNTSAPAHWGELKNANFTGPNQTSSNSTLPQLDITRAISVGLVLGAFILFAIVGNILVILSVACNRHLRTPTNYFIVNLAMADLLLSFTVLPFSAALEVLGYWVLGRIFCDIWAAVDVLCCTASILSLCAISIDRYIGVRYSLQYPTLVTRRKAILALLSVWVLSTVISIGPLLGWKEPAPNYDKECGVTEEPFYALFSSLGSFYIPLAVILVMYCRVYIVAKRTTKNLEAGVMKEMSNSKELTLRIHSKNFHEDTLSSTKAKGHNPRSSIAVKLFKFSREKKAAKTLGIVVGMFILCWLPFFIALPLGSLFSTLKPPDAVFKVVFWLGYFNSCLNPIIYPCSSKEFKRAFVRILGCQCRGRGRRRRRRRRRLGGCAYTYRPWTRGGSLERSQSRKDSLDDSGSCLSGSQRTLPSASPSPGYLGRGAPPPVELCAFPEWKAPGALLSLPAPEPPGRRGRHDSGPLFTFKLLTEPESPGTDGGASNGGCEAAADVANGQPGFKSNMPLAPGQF
Method: as §1

[6] = molecular target: T3, α1BAR E194^ECL2→V (Homo sapiens, UniProt P35368, E194V); assay: as above; type: cell-based
T3 construct: harboring the wild-type helix 8 and the full-length C-terminus as well as the entire ICL3; expressed in transfected cells; host or cells: HEK293T/17
Method: as §1

[7] = molecular target: T4, α1BAR I116^3.23→T (Homo sapiens, UniProt P35368, I116T); assay: as above; type: cell-based
T4 construct: harboring the wild-type helix 8 and the full-length C-terminus as well as the entire ICL3; expressed in transfected cells; host or cells: HEK293T/17
Method: as §1

[8] = molecular target: T5, α1BAR P349^7.54→L (Homo sapiens, UniProt P35368, P349L); assay: as above; type: cell-based
T5 construct: receptor constructs harboring the wild-type helix 8 and the full-length C-terminus as well as the entire ICL3; expressed in transfected cells; host or cells: HEK293T/17
Method: as §1

[9] = molecular target: T6, α1BAR S168^4.48→C (Homo sapiens, UniProt P35368, S168C); assay: as above; type: cell-based; details: for IP1 concentration: S168C, listed as PE
T6 construct: harboring the wild-type helix 8 and the full-length C-terminus as well as the entire ICL3; expressed in transfected cells; host or cells: HEK293T/17
T6 sequence (P35368 1-520 S168C): T2 sequence (P35368 1-520 D191Y) with S168C, Y191D
Method: as §1

[10] = molecular target: T7, α1BAR S95^2.54→C (Homo sapiens, UniProt P35368, S95C); assay: as above; type: cell-based; details: for IP1 concentration: S95C, listed as PE
T7 construct: harboring the wild-type helix 8 and the full-length C-terminus as well as the entire ICL3; expressed in transfected cells; host or cells: HEK293T/17
T7 sequence (P35368 1-520 S95C): T2 sequence (P35368 1-520 D191Y) with S95C, Y191D
Method: as §1

[11] = molecular target: T8, α1BAR T295^6.36→M (Homo sapiens, UniProt P35368, T295M); assay: as above; type: cell-based
T8 construct: harboring the wild-type helix 8 and the full-length C-terminus as well as the entire ICL3; expressed in transfected cells; host or cells: HEK293T/17
Method: as §1

[12] = molecular target: T9, α1BAR V124^3.31→M (Homo sapiens, UniProt P35368, V124M); assay: as above; type: cell-based
T9 construct: harboring the wild-type helix 8 and the full-length C-terminus as well as the entire ICL3; expressed in transfected cells; host or cells: HEK293T/17
Method: as §1

[13] = molecular target: T10, α1BAR V333^7.38→L (Homo sapiens, UniProt P35368, V333L); assay: as above; type: cell-based
T10 construct: harboring the wild-type helix 8 and the full-length C-terminus as well as the entire ICL3; expressed in transfected cells; host or cells: HEK293T/17
Method: as §1

[14] = molecular target: T11, α1BAR G183^4.63→V (Homo sapiens, UniProt P35368, G183V); assay: as above; type: cell-based
T11 construct: harboring the wild-type helix 8 and the full-length C-terminus as well as the entire ICL3; expressed in transfected cells; host or cells: HEK293T/17
Method: (§2) Signaling assays were performed with receptor constructs harboring the wild-type helix 8 and the full-length C-terminus as well as the entire ICL3. Agonist-induced IP1 accumulation was measured in transiently transfected HEK293T/17 cells, as described before. Twenty-four hours after transfection, cells were washed with phosphate-buffered saline (PBS), detached with trypsin-EDTA (Sigma), and resuspended in assay buffer (10 mM HEPES pH 7.4, 1 mM CaCl2, 0.5 mM MgCl2, 4.2 mM KCl, 146 mM NaCl, 50 mM LiCl, 5.5 mM glucose, 0.1% (w/v) BSA). […] IP1 accumulation was measured using the HTRF IP-One kit (Cisbio) according to the manufacturer’s protocol on a SPARK fluorescence plate reader (Tecan).

[15] = molecular target: T12, α1BAR S150^34.50→Y (Homo sapiens, UniProt P35368, S150Y); assay: as above; type: cell-based
T12 construct: harboring the wild-type helix 8 and the full-length C-terminus as well as the entire ICL3; expressed in transfected cells; host or cells: HEK293T/17
Method: as §2

T3 sequence (P35368 whole entry E194V): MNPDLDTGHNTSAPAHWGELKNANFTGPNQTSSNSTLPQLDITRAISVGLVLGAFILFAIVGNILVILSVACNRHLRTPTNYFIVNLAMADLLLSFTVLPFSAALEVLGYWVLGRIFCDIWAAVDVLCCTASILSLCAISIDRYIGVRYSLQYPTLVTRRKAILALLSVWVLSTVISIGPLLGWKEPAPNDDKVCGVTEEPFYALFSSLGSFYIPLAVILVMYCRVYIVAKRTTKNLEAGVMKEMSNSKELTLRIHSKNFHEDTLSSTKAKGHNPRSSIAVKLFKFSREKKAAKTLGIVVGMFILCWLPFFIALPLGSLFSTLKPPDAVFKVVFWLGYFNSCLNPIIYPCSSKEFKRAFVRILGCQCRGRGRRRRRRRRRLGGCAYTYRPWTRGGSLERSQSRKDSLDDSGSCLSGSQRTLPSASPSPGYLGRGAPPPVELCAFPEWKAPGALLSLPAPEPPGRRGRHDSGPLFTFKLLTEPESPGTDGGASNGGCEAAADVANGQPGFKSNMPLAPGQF
T10 sequence (P35368 whole entry V333L): as the sequence (P35368 whole entry E194V) above, with V194E, V333L counted along it
T4 sequence (P35368 whole entry I116T): as the sequence (P35368 whole entry E194V) above, with I116T, V194E counted along it
T8 sequence (P35368 whole entry T295M): as the sequence (P35368 whole entry E194V) above, with V194E, T295M counted along it
T12 sequence (P35368 whole entry S150Y): as the sequence (P35368 whole entry E194V) above, with S150Y, V194E counted along it
T1 sequence (P35368 whole entry): as the sequence (P35368 whole entry E194V) above, with V194E counted along it
T11 sequence (P35368 whole entry G183V): as the sequence (P35368 whole entry E194V) above, with G183V, V194E counted along it
T9 sequence (P35368 whole entry V124M): as the sequence (P35368 whole entry E194V) above, with V124M, V194E counted along it
T5 sequence (P35368 whole entry P349L): as the sequence (P35368 whole entry E194V) above, with V194E, P349L counted along it

Q: For `COc1cc2nc(N3CCN(C(=O)c4ccco4)CC3)nc(N)c2cc1OC` [3H-prazosin], which “impact of the L334/F334 mutation on affinity” value [1] is on record?
A: Its value is “only a minor impact”.

Q: With `COc1cc2nc(N3CCN(C(=O)c4ccco4)CC3)nc(N)c2cc1OC` [prazosin] as the compound, how does the “affinity as pK value (RLBA)” value ([2]; radioligand binding) read?
A: The value was 9.26–10.3.

Q: What about the Kd ([2]; read-out: affinity range reported in the literature) of the same compound?
A: The Kd was 0.05 to 0.55 nM.

Q: What about the Kd ([2]; read-out: mean affinity reported in the literature) of the same compound?
A: Its Kd is 0.11 nM.

Q: What about the Kd [3] of the same compound?
A: Its Kd is 0.074 nM.

Q: For `CNC[C@H](O)c1cccc(O)c1` [Phenylephrine], which Emax [4] is on record?
A: The Emax was 100%.

Q: What about the IP1 concentration ([5]; [PE] -4 log M) of the same compound?
A: The IP1 concentration was 519.698 and 441.949 and 662.352 and 730.409 and 630.141 and 710.683.

Q: What about the IP1 concentration ([5]; [PE] -4.69897 log M) of the same compound?
A: The IP1 concentration was 370.913 and 393.347 and 353.075 and 528.612 and 529.351 and 631.077.

Q: What about the IP1 concentration ([5]; [PE] -5.39794 log M) of the same compound?
A: Its IP1 concentration is 322.315 and 263.99 and 343.654 and 369.218 and 447.164 and 499.2.

Q: What about the Emax ([5]; HEK293T/17, IP1 accumulation) of the same compound?
A: The Emax was 89.6 ± 4.7%.

Q: What about the IP1 concentration ([6]; E194V, [PE] -4 log M, listed as PE) of the same compound?
A: The IP1 concentration was 499.282 and 565.119 and 803.974 and 817.17 and 667.593 and 781.933.

Q: And the Emax ([6]; HEK293T/17, IP1 accumulation)?
A: Its Emax is 85.4 ± 7.4%.

Q: And the Emax [7]?
A: The Emax was 71.2 ± 6.4%.

Q: And the Emax [8]?
A: The Emax was 27.3 ± 4.1%.

Q: And the Emax ([9]; HEK293T/17, IP1 accumulation)?
A: Its Emax is 96.8 ± 8%.

Q: What about the IP1 concentration ([9]; [PE] -4 log M) of the same compound?
A: The IP1 concentration was 678.88 and 634.809 and 694.6 and 789.857 and 654.693 and 717.983.

Q: And the IP1 concentration ([9]; [PE] -4.69897 log M)?
A: The IP1 concentration was 546.031 and 536.624 and 592.13 and 637.69 and 619.808 and 699.597.

Q: And the IP1 concentration ([9]; [PE] -5.39794 log M)?
A: The IP1 concentration was 630.294 and 403.102 and 536.003 and 572.191 and 548.559 and 641.7.

Q: And the IP1 concentration ([9]; [PE] -6.09691 log M)?
A: The IP1 concentration was 373.984 and 293.041 and 368.158 and 357.195 and 468.9 and 570.413.

Q: And the IP1 concentration ([9]; [PE] -6.79588 log M)?
A: Its IP1 concentration is 213.187 and 230.01 and 327.882 and 336.101 and 329.963 and 356.634.

Q: And the Emax ([10]; HEK293T/17, IP1 accumulation)?
A: Its Emax is 71.9 ± 5.7%.

Q: And the IP1 concentration ([10]; [PE] -4 log M)?
A: The IP1 concentration was 377.435 and 437.765 and 593.664 and 690.124 and 481.642 and 456.558.

Q: What about the IP1 concentration ([10]; [PE] -4.69897 log M) of the same compound?
A: The IP1 concentration was 323.191 and 422.658 and 500.281 and 586.924 and 403.917 and 432.8.

Q: What about the IP1 concentration ([10]; [PE] -5.39794 log M) of the same compound?
A: Its IP1 concentration is 269.373 and 257.6 and 377.64 and 428.644 and 333.33 and 361.512.

Q: And the Emax [11]?
A: Its Emax is 50.7 ± 5.9%.

Q: What about the Emax [12] of the same compound?
A: Its Emax is 84.2 ± 6.3%.

Q: And the Emax [13]?
A: Its Emax is 79.8 ± 5.2%.

Q: What about the Emax [14] of the same compound?
A: Its Emax is 9 ± 18.5%.

Q: And the Emax [15]?
A: Its Emax is 13.4 ± 1.7%.
